Series [1] deals with P. viticola cytochrome b gene F129 and L129 alleles. The experiment in a line: ARMS/Scorpion F129L SNP detection assay (Ct of allele selective primers on plasmid DNA templates). Also on record: species or system Plasmopara viticola. The procedure: In all ARMS/Scorpion F129L SNP detection assays AmpliTaq Gold enzyme (Applied Biosystems) is included in the reaction mixes at 1 unit/25 ul reaction. The reaction mix also contains 1× buffer (10 mM Tris-HCl (pH8.3), 50 mM KCl, 3.5 mM MgCl2, 0.01% gelatine) and 100 uM dNTP's (Amersham Pharmacia Biotech). Amplifications are performed in an ABI 7700 instrument for continuous fluorescence monitoring. The cycling conditions comprise a preliminary cycle of 95° C. for 10 minutes, followed by 50 cycles of 95° C. for 15 seconds and 60° C. for 45 seconds. Fluorescence is monitored during the annealing/extension stage throughout all cycles.
The ARMS primers are validated for use in such analyses by using plasmid DNA, at various concentrations as template. This is performed in order to check the specificity and sensitivity of the primer designs. Partial wild type cytochrome b gene sequence and the corresponding tract containing the F129L mutation amplified from two P. viticola samples has been cloned into the TA pCR2.1 vector (Invitrogen) as described previously in example 11. 150 ul of the bacterial culture, from the 10 transformants from each cloning event picked for Qiagen Biorobot plasmid DNA Preparations (Qiazen) (see example 11), was saved prior to carrying out these preparations and stored at 4° C. Following sequence analysis wild type and mutant plasmid DNA samples that contained no sequence differences from the consensus sequence were noted. The bacterial culture from which these wild type and mutant plasmid DNA sequences originated was picked for plasmid DNA maxipreps (Qiagen) following the manufacturers protocol. The resulting plasmid DNA was quantified and diluted to a concentration of 1 ug/ul (2×10^11 molecules/ul) using sterile double distilled H2O.
The wild type and mutant cyt b plasmid DNA constructs were diluted further to a concentration of 10 pg/ul (or 2×10^6 molecules/ul) in double distilled H2O and used as template to validate the specificity of the ARMS primers. […]

Another series relates to Pythium aphanidermatum. The experiment in a line: Azoxystrobin sensitivity of P. aphanidermatum isolates on treated perennial ryegrass turf (percent infected turf area). In kind it is in vivo. The procedure: To enable an assessment of axoxystrobin (strobilurin) resistance of the above isolates, perennial ryegrass (Lolium perenne L.) was grown in 4×4 inch square plastic pots containing sandy soil. Agsorb absorbent clay (extra fine red) was used to anchor the seeds and provide a high level of moisture around the seed to aid germination. The pots were watered using a fog nozzle and covered with paper to reduce evaporation. A fog nozzle was used 3-5 times a day to water the turf pots. When seedlings emerged, the paper cover was removed from the pots to prevent etiolation and watering was reduced to twice daily using a fan nozzle. The pots were maintained for 12-16 days in a glass-house (17-32° C.; 14 h photoperiod) prior to treatment. During this time, the turf was cut twice with electric Black and Decker hand-held clippers.
Pythium aphanidermatum cultures of the isolates summarized in FIG. 1 were maintained on potato dextrose agar (PDA) amended with streptomycin sulfate at 0.05 g/L. Organically grown rye grains (50 g) were hydrated overnight with 40 ml deionized water placed in 250 ml plastic (polyvinyl-chloride) flasks. The flasks were autoclaved twice on successive days for 45 minutes each time. After the berries cooled, ten 1×1 cm agar plugs of P. aphanidermatum were added to each flask. Flasks containing infected rye-berries were incubated in a growth chamber (26° C.; 14 h photoperiod) for seven days to allow the fungi to colonize the rye grains. The fungal-colonized rye grains were then used to inoculate the turf; by placing four berries on the center surface of each pot.
Azoxystrobin treatments were applied in an automated spray cabinet using a flat fan nozzle (8004E) positioned 18 inches over the turf with a spray volume of 3 US gal/1000 sq.ft. To prevent carry over from treatment to treatment, applications were made starting with the lowest concentration and ending with the highest concentration. The spray nozzle was washed once with acetone and twice with deionized water (100 ml/rinse) between treatments. Turf was sprayed with Heritage® (azoxystrobin) at rates of 0.4, 0.133, 0.044, 0.015, 0.005 and 0 oz.Heritage/1000 sq.ft. Following application, the turf was allowed to dry and was transferred to a growth chamber (25-28° C.; 14 h photoperiod) overnight.
Turf was inoculated with fungal-colonized rye-berries one day after application as previously described. All treatments were then randomized and placed in a dew chamber (25-28° C.; 14 h photoperiod) for four days. The turf was moved to a growth room 24 h prior to disease assessment. The percent of Pythium-infected turf area in each pot was assessed five days after inoculation With the exception of isolate 99-150, all the isolates of P. aphanidermatum were sensitive to azoxystrobin (Table1). […] This is the first report of resistance to azoxystrobin of an isolate of the plant pathogenic fungus P. aphanidermatum.
The sensitivity of the resistant isolate 99-150 and sensitive isolate P32R was then confirmed by testing in two separate experiments using rates up to nine times higher than the recommended commercial rate of Heritage® (azoxystrobin): 3.6, 1.2, 0.4, 0.133, 0.044, 0.015, 0.005 and 0 oz/1000 sq.ft.

Another series relates to Plasmopara viticola. The series can be described thus: in planta dose response bioassay with azoxystrobin on vine seedlings (EC50, EC95). The series is classed as in vivo. Particulars: for EC95: vine seedlings, azoxystrobin rates in ppm (Table 31). As for the experimental part: The in planta dose response bioassay was performed on 10 to 14 days old vine seedlings grown in 1.5″ pots. Six rates of azoxystrobin were chosen from preparatory tests, as the most suitable for showing any shifts in sensitivity to azoxystrobin in the dose response bioassay (Table 31).
The azoxystrobin preparation used for all the tests was P53, a technical grade powder with a purity of >97% azoxystrobin. This was kept consistent across all the tests to eliminate any variation caused by differences in chemical purity or physical state. Five seedlings were used per azoxystrobin rate per sample, and 10 seedlings were used for the no azoxystrobin control (sprayed with de-ionised water only).
The chemical was sprayed, with a Devilbiss spray gun at 10 psi, to maximum retention onto the adaxial surface of the 2nd true leaf (test leaf) of each seedling, with care being taken to continuously swirl the solution in the spray gun to prevent local fluctuations in azoxystrobin concentration: The seedlings were then carefully placed in a growth room (Day: 24° C., 60% RH, 4-5000 lux; Night: 17° C., 95% RH; Day length: 16 hours) for 24 hours.
After this time each test leaf was inoculated with the samples I112 and I116b. Both samples had passed through 1 cycle of subculture on 3″ vines since being removed from low temperature storage (FIG. 14). The inoculum from each sample, obtained from the 3″ vines, was diluted to 5,000 sporangia per ml using a dry haemocytometer (Improved Neubayer, depth 0.1 mm, 1/400 mm^2, Hawksley Crystallite, BS 748).
The samples were inoculated, with a Devilbiss spray gun at 10 psi, to maximum retention onto the abaxial surface of the test leaf of each seedling, with the suspension being swirled frequently in the spray gun to keep sporangia from accumulating at the bottom. The test seedlings were incubated in an ambient room for twenty-four hours. The seedlings were then randomised and placed in a growth room (Day: 24° C., 60% RH, 4-5000 lux; Night: 17° C., 95% RH; Day length: 16 hours) for 6 days, before being returned to the ambient room for a further 24 hours to stimulate sporulation.
The seedlings were assessed directly after their removal from the ambient room for the second time. Disease assessment was based on the percentage area of the leaf covered by sporulating lesions and discolouration, and recorded in 5% increments. […] The data was then analysed using the statistical program AGSTAT.

Take “Pv129S (DNA GTCCCCAAGGCAAAACATAACCCAT; chemistry not given here)”: the “Mut Ct” value in series [1] (mutant (L129) plasmid template, 2×10^6 molecules/ul) was found to be 17.22. Further, the NTC amplification entry in series [1] (no template (water only) control) is listed as “None”. Further, in series [1] (wild type (F129) plasmid template, 2×10^6 molecules/ul), the “Wt Ct” value amounted to 17.0.

Turning to `CO/C=C(/C(=O)OC)c1ccccc1Oc1cc(Oc2ccccc2C#N)ncn1` [azoxystrobin], the “sensitivity of isolate to azoxystrobin (percent of Pythium-infected turf area)” value in the series on Pythium aphanidermatum (P. aphanidermatum isolate 99-150, Heritage 0.005-0.4 oz/1000 sq.ft on turf, assessed five days after inoculation) is reported as “resistant”. In the series on Pythium aphanidermatum (all P. aphanidermatum isolates except 99-150, Heritage 0.005-0.4 oz/1000 sq.ft on turf, assessed five days after inoculation), the “sensitivity of isolates to azoxystrobin (percent of Pythium-infected turf area)” value was “sensitive”. Further, in the series on Pythium aphanidermatum (resistant isolate 99-150, rates up to nine times the recommended commercial rate of Heritage (3.6 oz/1000 sq.ft)), the “response of isolate to azoxystrobin (percentage of infected turf)” value was “did not respond”. Further, in the series on Pythium aphanidermatum (sensitive P. aphanidermatum isolates, compared with the established baseline distribution), the “ED80 values of the sensitive isolates” value is recorded as “within the range of ED80 values of the baseline distribution”. Moreover, in the series with Pythium aphanidermatum (sensitive isolate P32R, highest rate of Heritage (3.6 oz/1000 sq.ft)), the “percentage of infected turf” value was “reduced dramatically”. For the same molecule, the EC95 is 0.51 in the series on Plasmopara viticola (P. viticola K2075 (sensitive baseline isolate)), 11.75 in the series with Plasmopara viticola (P. viticola isolate 00I112) and 2.84 in the series with Plasmopara viticola (P. viticola isolate 00I116B). Further, the “sensitivity to azoxystrobin in the in planta dose response bioassay” value was “reduced sensitivity” in the series with Plasmopara viticola (P. viticola sample I112, compared with the sensitive baseline isolate) and “reduced sensitivity” in the series on Plasmopara viticola (P. viticola sample I116B, compared with the sensitive baseline isolate).

The values above are taken from US20050014144A1, “Methods” (priority 2001, published 2005).
